The target of this test is T1, EGFR L858R-T790M (Homo sapiens, UniProt P00533, L858R/T790M).
T1 construct: NCI-H1975 (harboring EGFR heterozygous L858R-T790M mutations); host or cells: NCI-H1975
T1 sequence (P00533 25-1210 T790M/L858R): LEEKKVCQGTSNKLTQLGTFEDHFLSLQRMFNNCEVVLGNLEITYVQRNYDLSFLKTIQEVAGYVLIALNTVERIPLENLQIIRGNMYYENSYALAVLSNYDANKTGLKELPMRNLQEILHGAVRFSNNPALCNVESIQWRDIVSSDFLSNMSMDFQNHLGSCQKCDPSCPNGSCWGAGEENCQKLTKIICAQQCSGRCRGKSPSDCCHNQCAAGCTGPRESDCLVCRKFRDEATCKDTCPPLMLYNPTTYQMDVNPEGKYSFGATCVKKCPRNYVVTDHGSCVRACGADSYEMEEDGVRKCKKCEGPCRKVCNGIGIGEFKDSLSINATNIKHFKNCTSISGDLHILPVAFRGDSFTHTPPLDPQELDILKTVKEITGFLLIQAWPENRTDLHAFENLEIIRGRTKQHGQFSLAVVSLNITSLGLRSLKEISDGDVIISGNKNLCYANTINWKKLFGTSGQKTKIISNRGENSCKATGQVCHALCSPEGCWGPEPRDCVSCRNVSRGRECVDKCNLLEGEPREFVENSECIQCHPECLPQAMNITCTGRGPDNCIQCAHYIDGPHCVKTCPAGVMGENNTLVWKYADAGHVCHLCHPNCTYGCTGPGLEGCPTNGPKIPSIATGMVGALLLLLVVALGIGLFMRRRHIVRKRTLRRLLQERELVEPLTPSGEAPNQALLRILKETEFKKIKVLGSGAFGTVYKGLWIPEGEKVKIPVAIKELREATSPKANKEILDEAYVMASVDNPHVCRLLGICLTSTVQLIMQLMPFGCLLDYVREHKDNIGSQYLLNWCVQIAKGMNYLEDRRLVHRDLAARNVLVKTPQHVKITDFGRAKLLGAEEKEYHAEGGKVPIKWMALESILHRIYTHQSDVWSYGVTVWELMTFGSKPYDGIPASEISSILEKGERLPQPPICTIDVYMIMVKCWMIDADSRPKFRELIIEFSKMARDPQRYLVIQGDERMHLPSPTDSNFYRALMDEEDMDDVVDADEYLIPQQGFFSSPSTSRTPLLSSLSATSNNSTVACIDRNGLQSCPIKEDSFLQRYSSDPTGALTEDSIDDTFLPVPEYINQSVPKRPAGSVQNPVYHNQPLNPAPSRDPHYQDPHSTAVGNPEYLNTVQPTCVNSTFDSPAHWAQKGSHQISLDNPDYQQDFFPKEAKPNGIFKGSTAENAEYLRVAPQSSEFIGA
The experiment in a line: EGFR degradation, Total EGFR (L858R-specific) HTRF, NCI-H1975. In kind it is cell-based. The following applies: Table 9B; NCI-H1975 cells, 6 hours, Total EGFR HTRF; read-out: H1975 EGFR DC50. The method in brief:
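Cells in RPMI 1640 + 10% FBS treated 6 h at 37°C with compound, 11-point half-log titration from 10 μM top, in duplicate. pY1068 and total EGFR read by HTRF (pan-EGFR antibody for wild-type A431; L858R-specific for mutants); IC50 for phospho inhibition, DC50 for 50% degradation.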
On the technique in general: Time-resolved FRET reads energy transfer from a long-lived donor to a nearby acceptor.
For `O=C1CC[C@@H](Nc2ccc(N3CCC(O)(CC(=O)N4CC5(C4)CN(c4ccc(-c6cc(F)c7c(c6)C(=O)N(C(C(=O)Nc6nccs6)c6ncn8c6CCC8)C7)cn4)C5)CC3)c(F)c2)C(=O)N1` (stereo partly drawn) [Compound 111, 2-(6,7-dihydro-5H-pyrrolo[1,2-c]imidazol-1-yl)-2-(6-(6-(6-(2-(1-(4-(((R)-2,6-dioxopiperidin-3-yl)amino)-2-fluorophenyl)-4-hydroxypiperidin-4-yl)acetyl)-2,6-diazaspiro[3.3]heptan-2-yl)pyridin-3-yl)-4-fluoro-1-oxoisoindolin-2-yl)-N-(thiazol-2-yl)acetamide], the 50% degradation concentration (DC50) was < 50 nM.

As to `O=C1CCC(Nc2cnc(C3CCN(CC(=O)N4CC5(C4)CN(c4ccc(-c6cc(F)c7c(c6)C(=O)N(C(C(=O)Nc6nccs6)c6ncn8c6CCC8)C7)cc4)C5)CC3)c(F)c2)C(=O)N1` (stereo not drawn) [Compound 112, 2-(6,7-dihydro-5H-pyrrolo[1,2-c]imidazol-1-yl)-2-(6-(4-(6-(2-(4-(5-((2,6-dioxopiperidin-3-yl)amino)-3-fluoropyridin-2-yl)piperidin-1-yl)acetyl)-2,6-diazaspiro[3.3]heptan-2-yl)phenyl)-4-fluoro-1-oxoisoindolin-2-yl)-N-(thiazol-2-yl)acetamide], the DC50 is < 50 nM.

`Cn1nc(N2CCC(=O)NC2=O)c2ccc(C3CCN(CC(=O)N4CCC5(C4)CN(c4ccc(-c6cc(F)c7c(c6)C(=O)N(C(C(=O)Nc6nccs6)c6ncn8c6CCC8)C7)cc4)C5)CC3(F)F)cc21` (stereo not drawn) [Compound 113, 2-(6,7-dihydro-5H-pyrrolo[1,2-c]imidazol-1-yl)-2-(6-(4-(6-(2-(4-(3-(2,4-dioxotetrahydropyrimidin-1(2H)-yl)-1-methyl-1H-indazol-6-yl)-3,3-difluoropiperidin-1-yl)acetyl)-2,6-diazaspiro[3.4]octan-2-yl)phenyl)-4-fluoro-1-oxoisoindolin-2-yl)-N-(thiazol-2-yl)acetamide]: the DC50 was < 50 nM.

For the compound `O=C1CCC(Nc2ccc(N3CCC(O)(CC(=O)N4CCC5(CC4)CN(c4ccc(-c6cc(F)c7c(c6)C(=O)N(C(C(=O)Nc6nccs6)c6ncn8c6CCC8)C7)cc4)C5)CC3)c(F)c2)C(=O)N1` (stereo not drawn) [Compound 114, 2-(6,7-dihydro-5H-pyrrolo[1,2-c]imidazol-1-yl)-2-[6-[4-[7-[2-[1-[4-[(2,6-dioxo-3-piperidyl)amino]-2-fluoro-phenyl]-4-hydroxy-4-piperidyl]acetyl]-2,7-diazaspiro[3.5]nonan-2-yl]phenyl]-4-fluoro-1-oxo-isoindolin-2-yl]-N-thiazol-2-yl-acetamide], the DC50 was < 50 nM.

Take `O=C1CCC(Nc2ccc(N3CCC(O)(CC(=O)N4CCC5(C4)CN(c4ccc(-c6cc(F)c7c(c6)C(=O)N(C(C(=O)Nc6nccs6)c6ncn8c6CCC8)C7)cc4)C5)CC3)c(F)c2)C(=O)N1` (stereo not drawn) [Compound 115, 2-(6,7-dihydro-5H-pyrrolo[1,2-c]imidazol-1-yl)-2-[6-[4-[7-[2-[1-[4-[(2,6-dioxo-3-piperidyl)amino]-2-fluoro-phenyl]-4-hydroxy-4-piperidyl]acetyl]-2,7-diazaspiro[3.4]octan-2-yl]phenyl]-4-fluoro-1-oxo-isoindolin-2-yl]-N-thiazol-2-yl-acetamide]: the 50% degradation concentration (DC50) was < 50 nM.

`Cn1nc(N2CCC(=O)NC2=O)c2ccc(C3CCN(CC(=O)N4CC5(C4)CN(c4ccc(-c6cc(F)c7c(c6)C(=O)N(C(C(=O)Nc6nccs6)c6ncn8c6C[C@@H](F)C8)C7)cc4)C5)CC3(F)F)cc21` (stereo partly drawn) [Compound 116, 2-[6-[4-[2-[2-[4-[3-(2,4-dioxohexahydropyrimidin-1-yl)-1-methyl-indazol-6-yl]-3,3-difluoro-1-piperidyl]acetyl]-2,6-diazaspiro[3.3]heptan-6-yl]phenyl]-4-fluoro-1-oxo-isoindolin-2-yl]-2-[(6R)-6-fluoro-6,7-dihydro-5H-pyrrolo[1,2-c]imidazol-1-yl]-N-thiazol-2-yl-acetamide]: the DC50 was < 50 nM.

`O=C1CCC(Nc2ccc(N3CCC(O)(CC(=O)N4CC5(C4)CN(c4ccc(-c6cc(F)c7c(c6)C(=O)N(C(C(=O)Nc6nccs6)c6ncn8c6CCC8)C7)cc4)C5)CC3)c(Cl)c2)C(=O)N1` (stereo not drawn) [Compound 117, 2-[6-[4-[2-[2-[1-[2-chloro-4-[(2,6-dioxo-3-piperidyl)amino]phenyl]-4-hydroxy-4-piperidyl]acetyl]-2,6-diazaspiro[3.3]heptan-6-yl]phenyl]-4-fluoro-1-oxo-isoindolin-2-yl]-2-(6,7-dihydro-5H-pyrrolo[1,2-c]imidazol-1-yl)-N-thiazol-2-yl-acetamide]: the DC50 is < 50 nM.

As for `Cn1nc(N2CCC(=O)NC2=O)c2ccc(C3CCN(C(=O)CN4CC5(C4)CN(c4ccc(-c6cc(F)c7c(c6)C(=O)N(C(C(=O)Nc6nccs6)c6ncn8c6CCC8)C7)cn4)C5)CC3(F)F)cc21` (stereo not drawn) [Compound 118, 2-(6,7-dihydro-5H-pyrrolo[1,2-c]imidazol-1-yl)-2-(6-(6-(6-(2-(4-(3-(2,4-dioxotetrahydropyrimidin-1(2H)-yl)-1-methyl-1H-indazol-6-yl)-3,3-difluoropiperidin-1-yl)-2-oxoethyl)-2,6-diazaspiro[3.3]heptan-2-yl)pyridin-3-yl)-4-fluoro-1-oxoisoindolin-2-yl)-N-(thiazol-2-yl)acetamide], the DC50 was < 50 nM.

In the case of `Cn1nc(N2CCC(=O)NC2=O)c2cc(F)c(N3CCN(CC(=O)N4CC5(C4)CN(c4ccc(-c6cc(F)c7c(c6)C(=O)N(C(C(=O)Nc6nccs6)c6ncn8c6CCC8)C7)cc4)C5)CC3)cc21` (stereo not drawn) [Compound 123, 2-(6,7-dihydro-5H-pyrrolo[1,2-c]imidazol-1-yl)-2-[6-[4-[2-[2-[4-[3-(2,4-dioxohexahydropyrimidin-1-yl)-5-fluoro-1-methyl-indazol-6-yl]piperazin-1-yl]acetyl]-2,6-diazaspiro[3.3]heptan-6-yl]phenyl]-4-fluoro-1-oxo-isoindolin-2-yl]-N-thiazol-2-yl-acetamide], the DC50 is < 50 nM.

As for `Cn1nc(N2CCC(=O)NC2=O)c2cc(F)c(N3CCC(O)(CC(=O)N4CC5(C4)CN(c4ccc(-c6cc(F)c7c(c6)C(=O)N(C(C(=O)Nc6nccs6)c6ncn8c6CCC8)C7)cc4)C5)CC3)cc21` (stereo not drawn) [Compound 127, 2-(6,7-dihydro-5H-pyrrolo[1,2-c]imidazol-1-yl)-2-[6-[4-[2-[2-[1-[3-(2,4-dioxohexahydropyrimidin-1-yl)-5-fluoro-1-methyl-indazol-6-yl]-4-hydroxy-4-piperidyl]acetyl]-2,6-diazaspiro[3.3]heptan-6-yl]phenyl]-4-fluoro-1-oxo-isoindolin-2-yl]-N-thiazol-2-yl-acetamide], the DC50 was < 50 nM.

With `O=C1CC[C@H](Nc2ccc(N3CCC(O)(CC(=O)N4CC5(C4)CN(c4ccc(-c6cc(F)c7c(c6)C(=O)N(C(C(=O)Nc6nccs6)c6ncn8c6C[C@@H](F)C8)C7)cc4)C5)CC3)c(F)c2)C(=O)N1` (stereo partly drawn) [Compound 131, 2-[6-[4-[2-[2-[1-[4-[[(3S)-2,6-dioxo-3-piperidyl]amino]-2-fluoro-phenyl]-4-hydroxy-4-piperidyl]acetyl]-2,6-diazaspiro[3.3]heptan-6-yl]phenyl]-4-fluoro-1-oxo-isoindolin-2-yl]-2-[(6R)-6-fluoro-6,7-dihydro-5H-pyrrolo[1,2-c]imidazol-1-yl]-N-thiazol-2-yl-acetamide], the DC50 is < 50 nM.

Turning to `O=C1CC[C@@H](Nc2ccc(N3CCC(O)(CC(=O)N4CC5(C4)CN(c4ccc(-c6cc(F)c7c(c6)C(=O)N(C(C(=O)Nc6nccs6)c6ncn8c6C[C@@H](F)C8)C7)cc4)C5)CC3)c(F)c2)C(=O)N1` (stereo partly drawn) [Compound 132, 2-[6-[4-[2-[2-[1-[4-[[(3R)-2,6-dioxo-3-piperidyl]amino]-2-fluoro-phenyl]-4-hydroxy-4-piperidyl]acetyl]-2,6-diazaspiro[3.3]heptan-6-yl]phenyl]-4-fluoro-1-oxo-isoindolin-2-yl]-2-[(6R)-6-fluoro-6,7-dihydro-5H-pyrrolo[1,2-c]imidazol-1-yl]-N-thiazol-2-yl-acetamide], the DC50 is < 50 nM.

`Cn1nc(N2CCC(=O)NC2=O)c2ccc(C3CCN(CC(=O)N4CC5(C4)CN(c4ccc(-c6cc(F)c7c(c6)C(=O)N(C(C(=O)Nc6nccs6)c6ncn8c6CCC8)C7)cc4)C5)CC3F)cc21` (stereo not drawn) [Compound 133, 2-(6,7-dihydro-5H-pyrrolo[1,2-c]imidazol-1-yl)-2-[6-[4-[2-[2-[4-[3-(2,4-dioxohexahydropyrimidin-1-yl)-1-methyl-indazol-6-yl]-3-fluoro-1-piperidyl]acetyl]-2,6-diazaspiro[3.3]heptan-6-yl]phenyl]-4-fluoro-1-oxo-isoindolin-2-yl]-N-thiazol-2-yl-acetamide]: the DC50 was < 50 nM.

Take `O=C1CCC(Nc2cc(F)c(N3CCC(O)(CC(=O)N4CC5(C4)CN(c4ccc(-c6cc(F)c7c(c6)C(=O)N(C(C(=O)Nc6nccs6)c6ncn8c6CCC8)C7)cc4)C5)CC3)cc2F)C(=O)N1` (stereo not drawn) [Compound 135, 2-(6,7-dihydro-5H-pyrrolo[1,2-c]imidazol-1-yl)-2-[6-[4-[2-[2-[1-[4-[(2,6-dioxo-3-piperidyl)amino]-2,5-difluoro-phenyl]-4-hydroxy-4-piperidyl]acetyl]-2,6-diazaspiro[3.3]heptan-6-yl]phenyl]-4-fluoro-1-oxo-isoindolin-2-yl]-N-thiazol-2-yl-acetamide]: the DC50 is < 50 nM.

As to `O=C1CC[C@H](Nc2ccc(N3CCC(O)(CC(=O)N4CC5(C4)CN(c4ccc(-c6cc(Cl)c7c(c6)C(=O)N(C(C(=O)Nc6nccs6)c6ncn8c6CCC8)C7)cc4)C5)CC3)c(F)c2)C(=O)N1` (stereo partly drawn) [Compound 136, 2-[4-chloro-6-[4-[2-[2-[1-[4-[[(3S)-2,6-dioxo-3-piperidyl]amino]-2-fluoro-phenyl]-4-hydroxy-4-piperidyl]acetyl]-2,6-diazaspiro[3.3]heptan-6-yl]phenyl]-1-oxo-isoindolin-2-yl]-2-(6,7-dihydro-5H-pyrrolo[1,2-c]imidazol-1-yl)-N-thiazol-2-yl-acetamide], the DC50 is < 50 nM.

Broadly, the DC50 is the midpoint of the concentration-degradation curve.

The record behind these values is patent US20240158418A1 (C4 Therapeutics, Inc., priority 2021, published 2024).
